Assay results reported in US4000310A, “Pharmaceutical compositions containing 6-methyl-3,4-diphenyl-3,4,5,6-tetrahydro-2-pyrone or derivatives thereof” (Union Chimique Continentale-U.C.C, priority 1974, dated 1976).

Tests used:
[1] = system: mice; experiment: Test for antioxotremorine action; type: in vivo, mouse (male, Swiss NMRI stock); conditions: mice, 8, 16, 32 or 64 mg/kg i.p. or oral; oxotremorine 0.5 mg/kg i.p.
Procedure: (§1) All the experiments described below were carried out using male rats weighing from 170 to 220 g (Wistar Af stock) and male mice weighing from 18 to 23 g (Swiss NMRI stock).
In mice which had been dosed intraperitoneally or orally with 8, 16, 32 or 64 mg/kg of MDTP, the effects of oxotremorine (0.5 mg/kg given intraperitoneally) were unchanged, as far as hypothermia, tremors, tears, hypersalivation and defecation were concerned.

[2] = system: animals; experiment: animal or person; type: in vivo, rat and mouse
Procedure: an increase in the activity and alertness of animals without abnormal behaviour and particularly stereotyped movements ever appearing. Increased activity and alertness were found in both the rat and the mouse by observing the animals, measuring their motor activity and measuring their exploration of a board containing holes and the shortening of the reaction time of mice on a hot-plate. The increase is marked (according to the tests) from doses of 16 to 32 mg/kg given orally; it takes place rapidly after administration and lasts about 2 hours. These doses are far from the toxic level (ratio LD50/ED 50 approximately 20/1 in the mouse and over 10/1 in the rat);

[3] = system: mouse; experiment: Conditioned inhibition, 4 plate test, mouse; type: in vivo, mouse (male, Swiss NMRI stock)
Procedure: as §1
A simple conditioned inhibition test was used, the 4 plate test (ARON an Coll, Neuropharmacology 1971, 10, 459-470).

[4] = Determination of acute toxicity in the mouse; type: in vivo; conditions: in vivo, Behrens and Karber
Procedure: as §1
(§2) All the experiments took place in a laboratory with a constant temperature (22° ± 1° C).
(§3) All the experiments were carried out blind (without the experimenter knowing, at the time of the tests, which animals had received the substance presumed active).
(§4) Unless otherwise stated, 10 animals were always used per point.

[5] = system: mouse; experiment: Determination of acute toxicity in the mouse; type: in vivo
Procedure: as §1, §2, §3, §4

[6] = system: mice; experiment: Test for antireserpine action, mice; type: in vivo, mouse (male, Swiss NMRI stock); conditions: mice, 8, 16, 32 and 64 mg/kg oral; reserpine 2.5 mg/kg i.p. 4 hours before
Procedure: as §1

[7] = system: rats; experiment: Test of anticataleptic action (prochlorperazine catalepsy); type: in vivo, rat (male, Wistar Af stock); conditions: 16 or 64 mg/kg i.p. or oral, prochlorperazine 8 mg/kg i.p., homolateral paws, Buddha or elevator test
Procedure: as §1

[8] = system: mouse; experiment: Observation of the animals, mouse; type: in vivo, mouse (male, Swiss NMRI stock)
Procedure: as §1, §2, §3, §4

[9] = system: rat; experiment: Avoidance conditioning in the rat (shuttle-box); type: in vivo, rat (male, Wistar Af stock); conditions: 64 mg/kg oral, 8 animals
Procedure: as §1
The avoidance conditioning was studied in the rat placed in a shuttle-box (with 2 compartments) (of. BOISSIER and SIMON: Therapie 1968, 23, 1267-1276).

Q: Which “effects of oxotremorine (hypothermia, tremors, tears, hypersalivation, defecation)” value [1] does the source give for `CC1CC(c2ccccc2)C(c2ccccc2)C(=O)O1` (stereo not shown) [MDTP, 6-methyl-3,4-diphenyl-3,4,5,6-tetrahydro-2-pyrone] here?
A: Its value is “unchanged”.

Q: And the “signs of sympathetic excitation, sleep preventing action” value ([2]; in vivo)?
A: The value was “does not give rise to any signs of sympathetic excitation, any sleep preventing action”.

Q: What about the sleep inhibiting effect ([2]; in vivo) of the same compound?
A: The sleep inhibiting effect was “does not have any sleep inhibiting effect”.

Q: And the “duration of increase in activity and alertness” value ([2]; oral, rat and mouse)?
A: Its value is “about 2 hours”.

Q: What about the minimal effective dose ([2]; po, read-out: doses from which increase in activity and alertness is marked) of the same compound?
A: Its minimal effective dose is 16 to 32 mg/kg.

Q: And the “change in conditioned inhibition” value ([3]; mouse, 4, 8, 16, 32, 64 and 128 mg/kg)?
A: Its value is “no change was observed in conditioned inhibition”.

Q: What about the “performance of the animals in 4 plate test” value ([3]; mouse, 4 to 128 mg/kg) of the same compound?
A: Its value is “a slight increase in the performance of the animals”.

Q: What about the LD50 ([4]; ip, intraperitoneal) of the same compound?
A: Its LD50 is 150 mg/kg.

Q: What about the LD50 ([4]; oral) of the same compound?
A: The LD50 was 625 mg/kg.

Q: And the “ratio LD50/ED 50” value [5]?
A: The value was “approximately 20/1”.

Q: And the “change in reserpine-induced hypothermia or palpebral ptosis” value [6]?
A: Its value is “did not produce any change in the hypothermia or palpebral ptosis”.

Q: What about the “change in cataleptic state” value [7] of the same compound?
A: Its value is “did not produce any change in the cataleptic state”.

Q: And the “diameter of the pupils, rectal temperature” value ([8]; doses below toxic level)?
A: The value was “no change in diameter of the pupils or the rectal temperature”.

Q: And the “motor incoordination, abnormal or stereotyped movements” value ([8]; doses below toxic level)?
A: Its value is “not accompanied by motor incoordination or by abnormal or stereotyped movements”.

Q: And the hyperthermia ([8]; doses very close to lethal level)?
A: Its hyperthermia is “moderate hyperthermia”.

Q: What about the toxic signs ([8]; in vivo) of the same compound?
A: The toxic signs was “tremors, hyperreactivity to very intense stimuli, interaggressiveness and convulsive phenomena with the rear paws stretched”.

Q: What about the excitation on observation ([8]; oral or intraperitoneal, from 16 mg/kg, below toxic level) of the same compound?
A: The excitation on observation was “slight excitation is observed with increased reaction to touching or to sound stimuli”.

Q: What about the minimal effective dose ([8]; oral or intraperitoneal, read-out: dose from which slight excitation is observed) of the same compound?
A: The minimal effective dose was 16 mg/kg.

Q: What about the “change in avoidance conditioning” value [9] of the same compound?
A: Its value is “did not produce any change in conditioning”.
